From paper PMC3949708, “Identification and Biosynthesis of a Novel Xanthomonadin-Dialkylresorcinol-Hybrid from Azoarcus sp. BH72” (PLoS ONE, 2014)

Legend:
[1] = molecular target: T1, ArcB (Azoarcus olearius, UniProt A1KCI0); test: GC-MS product detection after MSTFA derivatization; format: biochemical; details: 1 mM substrate, 2 µg ArcB, 100 mM Tris pH 7.4, 37 °C, 10 or 60 min
T1 construct: gene azo3920; full gene; CherryTag-His6 fusion cut off with TEV protease; E. coli BL21 (DE3) Star

[2] = molecular target: T2, ArcT (Azoarcus olearius, UniProt A1K222); test: MALDI-MS ATP-pyrophosphate isotopic exchange; format: biochemical; details: MgCl2, pyrophosphate, 20 mM Tris pH 7.4
T2 construct: gene azo0260; full gene; CherryTag-His6 fusion cut off with TEV protease; E. coli BL21 (DE3) Star
T2 sequence (A1K222 entry or part of it): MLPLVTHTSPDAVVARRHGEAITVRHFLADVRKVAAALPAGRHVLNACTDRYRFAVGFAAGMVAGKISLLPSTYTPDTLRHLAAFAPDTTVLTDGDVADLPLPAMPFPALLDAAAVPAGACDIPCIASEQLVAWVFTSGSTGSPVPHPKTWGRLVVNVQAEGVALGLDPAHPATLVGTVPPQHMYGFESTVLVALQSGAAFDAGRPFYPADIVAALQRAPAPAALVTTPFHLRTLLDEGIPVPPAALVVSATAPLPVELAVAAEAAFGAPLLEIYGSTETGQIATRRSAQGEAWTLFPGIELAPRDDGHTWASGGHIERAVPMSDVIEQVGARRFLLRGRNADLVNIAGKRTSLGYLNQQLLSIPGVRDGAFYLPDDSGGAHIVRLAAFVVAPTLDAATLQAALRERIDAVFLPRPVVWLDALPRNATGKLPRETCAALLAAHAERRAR

T1 sequence (A1KCI0 entry or part of it): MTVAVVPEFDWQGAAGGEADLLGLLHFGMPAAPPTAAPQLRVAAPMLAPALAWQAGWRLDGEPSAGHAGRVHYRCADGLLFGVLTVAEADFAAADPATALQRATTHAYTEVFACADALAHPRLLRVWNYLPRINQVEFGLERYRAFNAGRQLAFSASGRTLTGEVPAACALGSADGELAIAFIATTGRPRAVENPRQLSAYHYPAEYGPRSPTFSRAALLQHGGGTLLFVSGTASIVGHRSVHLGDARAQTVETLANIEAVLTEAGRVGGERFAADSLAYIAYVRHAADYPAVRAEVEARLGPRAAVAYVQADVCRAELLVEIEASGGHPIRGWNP

O=C(O)c1cccc(O)c1 [3-hydroxybenzoic acid]
GC-MS product detection after MSTFA derivatization ([1]; formed from chorismic acid): 3-HBA was only detectable in assays containing ArcB
MALDI-MS ATP-pyrophosphate isotopic exchange ([2]; adenylation, [γ-18O4]-ATP): MALDI-MS analysis showed ATP-label exchange in assays with 3-HBA

Nc1ncnc2c1ncn2[C@@H]1O[C@H](COP(=O)(O)OP(=O)(O)OP(=O)(O)O)[C@@H](O)[C@H]1O [[γ-^18O4]-ATP]
MALDI-MS ATP-pyrophosphate isotopic exchange ([2]; 3-HBA as co-substrate, labelled compound): MALDI-MS analysis showed ATP-label exchange in assays with 3-HBA

C=C(O[C@@H]1C=C(C(=O)O)C=C[C@H]1O)C(=O)O [chorismic acid]
GC-MS product detection after MSTFA derivatization [1]: 3-HBA was only detectable in assays containing ArcB
